How the values were obtained:
[1] = test system: p53-inducible model cells; settings: published studies (Sherley, 1991); cited from earlier work
[2] = test system: freshly harvested murine bone marrow cells; assay: Bone marrow colony formation in soft agar (fresh bone marrow); assay type: cell-based; settings: fresh bone marrow cells; type I, II, III colonies
Experimental: The following numbers of freshly harvested murine bone marrow cells were plated in soft agar in replicates of 6 in 6-well plates: 1×10^5, 5×10^5, or 1×10^6. After 1-3 weeks, type I, II, and III colonies (see FIG. 2 for examples) were enumerated by phase microscopy.
Because of the difficulties anticipated in cloning Xs-dependent cells from heterogenous long-term bone marrow cultures, we decided to adopt a soft agar culture strategy. It is well known that hematopoietic progenitor cells will form colonies when grown in semi-solid medium (Dexter et al., 1984). […] In many bone marrow cell studies, conditions are selected to induce bone marrow cell differentiation. Methyl-cellulose or soft agar supplemented with lineage-promoting growth factors are widely used experimental systems (Dexter et al., 1984). For ideal SACK, we wished to minimize stimuli for differentiation. Therefore, we used agar developed in routine horse serum-supplemented long-term culture medium, without any additional growth factor source, as the gel medium for our studies. We followed procedures developed for detecting anchorage-independent growth of transformed tumor cells.
Given their associated HSC activity, LT-CFCs are predicted to divide with asymmetric cell kinetics. We evaluated whether Xs would increase the frequency of LT-CFC type I colonies in soft agar. Freshly prepared bone marrow cells were plated in soft agar developed in either control medium or medium containing 1 mM or 3 mM Xs.

Xs-D lines = assay: Albumin induction in adherent culture under conditions of quiescence; assay type: cell-based, rat; settings: added to standard quiescence-induction protocol (confluency, 1% serum)
Description: In vivo, cell differentiation in somatic tissues has two important cell kinetics features. First, it occurs after a fixed number of cell divisions from the stem cell stage; and second, cells undergo a cell kinetics arrest before terminal differentiation occurs (Potten and Morris, 1988). Ideally, we wanted to mimic this process in culture with cells dividing with asymmetric stem cell kinetics. However, there was concern whether in vitro asymmetric divisions would be in appropriate balance with non-dividing cells. So, we decided to augment the growth arrest by growing cells to confluency in either Xs-free or Xs-containing medium and then inducing a total quiescent state by reducing the serum concentration to 1%. Many in vitro cell models have been described that undergo differentiation upon serum reduction.
The most dramatic differentiation result obtained in the adherent culture studies was the induction of albumin expression in Xs-D lines under conditions of quiescence (See example in FIG. 4). […] Three other treatments were added to the standard quiescence-induction protocol to evaluate their effect on albumin induction. These were DMSO to mimic glucocorticoid effects, growth on collagen as a form of extracellular matrix, and glucose-removal as noted above for its differentiation effects on gastrointestinal cell lines. […]

Compound | Effectiveness as SACK agent compared with Xs [1] | Effect on frequency of colony types in soft agar [2] | Effect on degree/induction of albumin expression (Xs-D lines)
O=c1[nH]cnc2nc[nH]c12 [Hx, hypoxanthine] | not as effective a SACK agent as Xs | increased the frequency of type II and III colonies at the expense of type I colonies | –
C[S+](C)[O-] [DMSO] | – | – | no noticeable effect
